The supplement of paper PMC4977894
Where a name gives a salt, the structure may show the parent alone. ± gives the standard deviation of the averaged measurements.

Legend:
[1] = system: Homo sapiens (human subject panel, olfactory perception); test: perceived odor familiarity rating (rating 0-100); higher = more familiar
Outline: (§1)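 Stimuli were molecules diluted in paraffin oil at high and low concentrations, with 1 mL of each sniffed in randomized order across ten visits of 100 stimuli. Participants were 55 healthy humans aged 18–50, excluding the six lowest performers. Subjects who smelled a stimulus moved a computerized slider away from its starting point of 50, and positions were rescaled to 0–100. Familiarity, intensity and pleasantness are each reported as an average over subjects.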

[2] = system: Homo sapiens (human subject panel, olfactory perception); test: perceived odor pleasantness rating (rating 0-100); higher = more pleasant
Outline: as §1

[3] = system: Homo sapiens (human subject panel, olfactory perception); test: perceived odor intensity rating (rating 0-100); higher = stronger perceived smell
Outline: as §1

[4] = odor dilution in paraffin oil: 1/1,000
[5] = odor dilution in paraffin oil: 1/100,000
[6] = odor dilution in paraffin oil: 1/10

| SMILES | perceived odor familiarity rating [1, 4] | perceived odor familiarity rating [1, 5] | perceived odor pleasantness rating [2, 4] | perceived odor pleasantness rating [2, 5] | perceived odor intensity rating [3, 4] | perceived odor intensity rating [3, 5] | perceived odor familiarity rating [1, 6] | perceived odor pleasantness rating [2, 6] | perceived odor intensity rating [3, 6] |
| --- | --- | --- | --- | --- | --- | --- | --- | --- | --- |
| CCCC(=O)SC [Methyl thiobutyrate] | 50.2 ± 36 | 45.1 ± 32 | 4.96 ± 12 | 16.2 ± 22 | 92.4 ± 14 | 69.8 ± 26 |  |  |  |
| CC/C=C\CCOC(=O)Cc1ccccc1 [cis-3-Hexenyl phenylacetate] | 41.3 ± 30 | 37.5 ± 32 | 40.1 ± 26 | 52.2 ± 25 | 51 ± 31 | 14.4 ± 23 |  |  |  |
| O=C(O)/C=C/C(=O)O [Fumaric acid] | 44 ± 31 |  | 49.5 ± 25 |  | 17.1 ± 23 |  | 51.9 ± 32 | 36.9 ± 24 | 58.8 ± 26 |
| N[C@@H](CC(=O)O)C(=O)O [Aspartic Acid] | 40 ± 30 |  | 35 ± 23 |  | 29.7 ± 30 |  | 46.6 ± 32 | 32.1 ± 28 | 63.6 ± 27 |
| COC(C)=O [methyl acetate] | 29.6 ± 31 |  | 36.4 ± 19 |  | 23.9 ± 29 |  | 57.2 ± 28 | 26.9 ± 20 | 66.2 ± 28 |
| CC=Cc1ccc(OC(=O)Cc2ccccc2)c(OC)c1 [Isoeugenyl phenylacetate] | 68 ± 29 | 55.8 ± 30 | 56.2 ± 32 | 59.7 ± 26 | 78.7 ± 18 | 42.4 ± 32 |  |  |  |
| Cc1ncc(C[n+]2csc(CCO)c2C)c(N)n1 [Thiamine hydrochloride] | 44.7 ± 28 |  | 36.4 ± 22 |  | 61.6 ± 25 |  | 51.5 ± 29 | 35.5 ± 25 | 67.1 ± 23 |
| CCCCCCC1CCC(=O)O1 (configuration not stated) [gamma-decalactone] | 51.5 ± 32 | 46.4 ± 30 | 64.9 ± 27 | 61.4 ± 20 | 54 ± 28 | 33.2 ± 28 |  |  |  |
| OCCCc1ccccc1 [3-Phenyl-1-propanol] | 49.5 ± 34 | 36.7 ± 27 | 48.6 ± 33 | 45.4 ± 25 | 63.3 ± 30 | 34.5 ± 32 |  |  |  |
| O=C(OCCc1ccccc1)c1ccccc1 [Phenethyl benzoate] | 24.1 ± 21 |  | 49.4 ± 17 |  | 19.6 ± 22 |  | 47.1 ± 31 | 53.6 ± 24 | 38 ± 27 |
| CCCCCCCCCCCC(=O)O [Lauric acid (replicate)] | 34.1 ± 27 |  | 35.4 ± 22 |  | 36 ± 32 |  | 50.6 ± 32 | 28.8 ± 22 | 72.2 ± 25 |
| OC[C@@H](O)[C@@H](O)[C@H](O)[C@@H](O)CO [D-Sorbitol] | 44.6 ± 31 |  | 45 ± 28 |  | 39 ± 33 |  | 55.1 ± 31 | 29.8 ± 27 | 73.4 ± 22 |
| C/C=C\c1ccc(O)c(OC)c1 [Isoeugenol] | 71.4 ± 27 | 60 ± 29 | 68.4 ± 26 | 66.9 ± 24 | 81.6 ± 15 | 64.5 ± 23 |  |  |  |
| CC(C)COC(=O)/C=C/c1ccccc1 [Isobutyl cinnamate] | 38.6 ± 30 |  | 54 ± 27 |  | 49.3 ± 33 |  | 45.6 ± 31 | 41.3 ± 30 | 70.4 ± 24 |
| CCOC(=O)CC(=O)OCC [Diethyl malonate] | 64.3 ± 24 | 42.8 ± 28 | 71.7 ± 17 | 61 ± 23 | 57.1 ± 27 | 27.4 ± 26 |  |  |  |
| CC(=O)OCCc1scnc1C [4-Methyl-5-thiazoleethanol acetate] | 53.8 ± 31 | 45.9 ± 32 | 34.4 ± 25 | 41.9 ± 24 | 66.3 ± 26 | 38 ± 30 |  |  |  |
| CC/C=C\CCOC(=O)c1ccccc1 [cis-3-Hexenyl benzoate] | 36.3 ± 28 | 34 ± 23 | 40.8 ± 19 | 51.2 ± 13 | 40.4 ± 31 | 28.1 ± 26 |  |  |  |
